Marks after values point to notes of the source that are not given here.
Columns and labels:
Assay type in all cases: in vivo
[1] = tested on: Zymoseptoria tritici (the causal agent of wheat leaf blotch); assay: Test B: preventive spray on wheat seedlings, wheat leaf blotch, visual disease rating; conditions: wheat seedlings
How it was run: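 This is a preventive test: spray application preceded Zymoseptoria tritici spore inoculation by one day. Test suspensions were in acetone/water with 250 ppm PEG400 surfactant, at the listed ppm rate. After 48 h saturated humidity at 24° C and 17 days at 20° C, visual ratings scored control from 0 to 100%.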

[2] = tested on: Phakopsora pachyrhizi (the causal agent of Asian soybean rust); assay: Test A: preventive spray on soybean seedlings, Asian soybean rust, visual disease rating; conditions: soybean seedlings
How it was run: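 Compound in acetone/water (50/50) with 250 ppm PEG400 sprayed to run-off on soybean seedlings; inoculated next day with Phakopsora pachyrhizi spores. Held 24 h at 22° C in saturated atmosphere, then 8 days in a 22° C growth chamber before visual rating as % disease control relative to controls.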

[3] = tested on: Puccinia recondita f. sp. tritici (the causal agent of wheat leaf rust); assay: Test C: preventive spray on wheat seedlings, wheat leaf rust, visual disease rating; conditions: wheat seedlings
How it was run: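 Wheat seedlings sprayed to run-off with compound in acetone/water (50/50) with 250 ppm PEG400, then inoculated with spores the following day. After 24 h saturated humidity at 20° C. and 6 days in growth chamber at 20° C., disease rated visually as % control relative to untreated controls.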

[4] = 250 ppm test suspension, 100 = 100% disease control
[5] = 10 ppm test suspension, 100 = 100% disease control, 0 = no control
[6] = 50 ppm test suspension, 100 = 100% disease control, 0 = no control

| SMILES | Test B disease control rating [1, 4] | Test A disease control rating [2, 5] | Test C disease control rating [3, 5] | also measured |
| --- | --- | --- | --- | --- |
| N#Cc1cnn(CCCc2ccc(-c3noc(C(F)(F)F)n3)cc2)c1 [compound 359] |  |  |  | Test B disease control rating ([1]; test suspension 250 ppm): 99* %; Test A disease control rating ([2]; test suspension 10 ppm, 100 = 100% disease control, 0 = no control): 100%; Test C disease control rating ([3]; test suspension 10 ppm): 95% |
| CCCOC(=O)c1cnn(CCCc2ccc(-c3noc(C(F)(F)F)n3)cc2)c1 [compound 365] |  |  |  | Test B disease control rating ([1]; test suspension 250 ppm): 80* %; Test A disease control rating ([2]; test suspension 50 ppm): 100%; Test C disease control rating ([3]; test suspension 50 ppm): 99% |
| N#Cc1csc(Cc2ccc(-c3noc(C(F)(F)F)n3)cc2)n1 [compound 370] |  |  |  | Test B disease control rating ([1]; test suspension 250 ppm): 98* %; Test A disease control rating ([2]; test suspension 250 ppm): 100%; Test C disease control rating ([3]; test suspension 250 ppm): 100% |
| O=C1CCCN1Cc1ccc(-c2noc(C(F)(F)F)n2)cc1 [compound 371] |  |  |  | Test B disease control rating ([1]; test suspension 250 ppm): 95* %; Test A disease control rating ([2]; test suspension 250 ppm): 100%; Test C disease control rating ([3]; test suspension 250 ppm): 100% |
| O=C1COCCN1Cc1ccc(-c2noc(C(F)(F)F)n2)cc1 [compound 372] |  |  |  | Test B disease control rating ([1]; test suspension 250 ppm): 99* %; Test A disease control rating ([2]; test suspension 250 ppm): 100%; Test C disease control rating ([3]; test suspension 250 ppm): 100% |
| C=CCOC(=O)c1cnn(CCCc2ccc(-c3noc(C(F)(F)F)n3)cc2)c1 [compound 373] |  |  |  | Test B disease control rating ([1]; test suspension 250 ppm): 99* %; Test A disease control rating ([2]; test suspension 250 ppm): 100%; Test C disease control rating ([3]; test suspension 250 ppm): 100% |
| N#CCNC(=O)c1csc(Cc2ccc(-c3noc(C(F)(F)F)n3)cc2)n1 [compound 393] | 94* % | 100% | 100% |  |
| O=C(NC1CCC(F)(F)CC1)c1coc(Cc2ccc(-c3noc(C(F)(F)F)n3)cc2)n1 [compound 395] | 0* % | 95% | 97% |  |
| O=C(NCCn1cccn1)c1csc(Cc2ccc(-c3noc(C(F)(F)F)n3)cc2)n1 [compound 396] | 28* % | 100% | 100% |  |
| O=C(NCCC(F)(F)F)c1csc(Cc2ccc(-c3noc(C(F)(F)F)n3)cc2)n1 [compound 397] | 82* % | 100% | 98% |  |
| O=C(NCCCC(F)(F)F)c1coc(Cc2ccc(-c3noc(C(F)(F)F)n3)cc2)n1 [compound 398] | 80* % | 100% | 97% |  |
| O=C(NCC=C(Cl)Cl)c1coc(Cc2ccc(-c3noc(C(F)(F)F)n3)cc2)n1 [compound 399] | 10* % | 100% | 99% |  |
| CCOC(=O)c1csc(COc2ccc(-c3noc(C(F)(F)F)n3)cc2)n1 [compound 404] | 0* % | 0% | 68% |  |
| O=C(c1ccc(Cc2ccc(-c3noc(C(F)(F)F)n3)cc2)o1)C(F)(F)F [compound 450] | 41* % | 94% | 0% |  |
| FC(F)(F)c1nc(-c2ccc(Cc3ccccc3)cc2)no1 [compound 451] | 8* % | 99% | 0% |  |
| COC(=O)c1cnc(Oc2ccc(-c3noc(C(F)(F)F)n3)cc2)s1 [compound 452] | 59* % | 81% | 0% |  |
| CCOC(=O)c1ccc(Cc2ccc(-c3noc(C(F)(F)F)n3)cc2)cc1 [compound 453] | 50* % | 92% | 0% |  |
| COC(=O)c1coc(Cc2ccc(-c3noc(C(F)(F)F)n3)cc2)c1 [compound 456] | 65* % | 100% | 68% |  |

| SMILES | Test B disease control rating [1, 4] | Test A disease control rating [2, 5] | Test C disease control rating [3, 5] | also measured |
| --- | --- | --- | --- | --- |
| CCOC(=O)c1cnn(CN2CCC(c3noc(C(F)(F)F)n3)CC2)c1 [compound 458] | 0* % |  |  | Test A disease control rating [2, 6]: 0%; Test C disease control rating [3, 6]: 0% |
| CCOC(=O)c1cnn(CCN2CCC(c3noc(C(F)(F)F)n3)CC2)c1 [compound 459] | 0* % |  |  | Test A disease control rating [2, 6]: 0%; Test C disease control rating [3, 6]: 0% |
| COCCNC(=O)c1coc(COc2ccc(-c3noc(C(F)(F)F)n3)cc2)n1 [compound 464] | 94* % | 79% | 23% |  |
| O=C(NCC(F)(F)F)c1coc(COc2ccc(-c3noc(C(F)(F)F)n3)cc2)n1 [compound 465] | 0* % | 100% | 80% |  |
| O=C(NCCn1cccn1)c1coc(COc2ccc(-c3noc(C(F)(F)F)n3)cc2)n1 [compound 466] | 3* % | 100% | 55% |  |
| O=C(NCCC(F)(F)F)c1coc(COc2ccc(-c3noc(C(F)(F)F)n3)cc2)n1 [compound 467] | 6* % | 97% | 68% |  |
| N#CCNC(=O)c1coc(COc2ccc(-c3noc(C(F)(F)F)n3)cc2)n1 [compound 468] | 22* % | 84% | 0% |  |
| COCCNC(=O)c1csc(COc2ccc(-c3noc(C(F)(F)F)n3)cc2)n1 [compound 469] | 65* % | 96% | 86% |  |
| O=C(NCC(F)(F)F)c1csc(COc2ccc(-c3noc(C(F)(F)F)n3)cc2)n1 [compound 470] | 0* % | 100% | 94% |  |
| O=C(NCCn1cccn1)c1csc(COc2ccc(-c3noc(C(F)(F)F)n3)cc2)n1 [compound 471] | 15* % | 77% | 80% |  |
| O=C(NCCC(F)(F)F)c1csc(COc2ccc(-c3noc(C(F)(F)F)n3)cc2)n1 [compound 472] | 22* % | 77% | 0% |  |
| N#CCNC(=O)c1csc(COc2ccc(-c3noc(C(F)(F)F)n3)cc2)n1 [compound 473] | 28* % | 94% | 89% |  |
| O=C(c1csc(Cc2ccc(-c3noc(C(F)(F)F)n3)cc2)n1)N1CCOCC1 [compound 487] |  | 100% | 100% | Test B disease control rating ([1]; 100 ppm test suspension (double asterisk), 100 = 100% disease control): 98** % |
| CCNC(=O)c1csc(Cc2ccc(-c3noc(C(F)(F)F)n3)cc2)n1 [compound 488] | 99* % | 100% | 100% |  |
| COCC(COC)NC(=O)c1csc(Cc2ccc(-c3noc(C(F)(F)F)n3)cc2)n1 [compound 489] | 92* % | 100% | 99% |  |
| CON=C(CCl)COC(=O)c1cnn(Cc2ccc(-c3noc(C(F)(F)F)n3)cc2)c1 [compound 494] | 47* % | 100% | 0% |  |
| O=C(CCl)COC(=O)c1cnn(Cc2ccc(-c3noc(C(F)(F)F)n3)cc2)c1 [compound 495] | 43* % | 100% | 0% |  |
| CC1(C)OCC(COC(=O)c2cnn(Cc3ccc(-c4noc(C(F)(F)F)n4)cc3)c2)O1 (stereo not drawn) [compound 496] | 48* % | 100% | 0% |  |

— patent US20240090503A1, “FUNGICIDAL OXADIAZOLES AND THEIR MIXTURES” (FMC CORPORATION, priority 2020, published 2024)
